The results in this text go back to patent US20170291905A1, “ARGININE […] INHIBITORS AND USES THEREOF” (Epizyme, Inc., priority 2014, published 2017).

pIC50: −log10 of the molar value.

T1 sequence (Q99873 with tags, fused parts or gaps): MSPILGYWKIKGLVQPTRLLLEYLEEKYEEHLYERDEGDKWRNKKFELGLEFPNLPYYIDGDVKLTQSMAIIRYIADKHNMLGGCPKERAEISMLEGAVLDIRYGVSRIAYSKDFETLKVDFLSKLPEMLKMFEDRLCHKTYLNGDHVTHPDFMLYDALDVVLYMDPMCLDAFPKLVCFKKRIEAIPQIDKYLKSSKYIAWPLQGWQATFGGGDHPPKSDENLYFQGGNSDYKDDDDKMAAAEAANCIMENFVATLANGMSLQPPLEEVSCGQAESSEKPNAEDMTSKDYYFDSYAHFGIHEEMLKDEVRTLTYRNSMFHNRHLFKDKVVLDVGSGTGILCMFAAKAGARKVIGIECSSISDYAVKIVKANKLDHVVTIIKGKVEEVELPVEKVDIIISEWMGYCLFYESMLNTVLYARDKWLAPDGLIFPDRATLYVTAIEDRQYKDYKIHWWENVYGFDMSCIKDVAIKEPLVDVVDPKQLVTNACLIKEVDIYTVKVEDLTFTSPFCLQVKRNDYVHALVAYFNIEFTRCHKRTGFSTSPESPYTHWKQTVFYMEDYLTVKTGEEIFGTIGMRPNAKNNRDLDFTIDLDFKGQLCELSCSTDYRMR

The experiment addresses T1, full-length human PRMT1 isoform 1 (GST-tagged) (Homo sapiens, UniProt Q99873).
T1 construct: GST-tagged PRMT1 was eluted with 50 mM Tris, 2 mM glutathione, pH 7.8, dialysed in buffer A and concentrated; made in house; host or cells: High Five insect cells (baculovirus)
As to the kind of experiment: PRMT1 biochemical assay (3H-SAM Flashplate, histone H4 36-50 peptide). The following applies: 0.5 nM PRMT1, 30 min preincubation, 20 nM peptide. The procedure, abridged:
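GST-PRMT1 (0.5 nM) preincubated 30 min at room temperature with compound in bicine buffer pH 7.6. Reaction then run with 200 nM 3H-SAM plus 1.5 uM SAM and 20 nM biotinylated H4 36-50 peptide, 2% DMSO. Stopped with excess cold SAM, and methylated peptide captured on streptavidin Flashplates for counting; % inhibition versus DMSO and 1 mM SAH controls, 3- or 4-parameter fit.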
Compound `CNCCN(C)Cc1c[nH]nc1C1CCC(COC)(COCC2CCOCC2)CC1` (stereo not drawn) [compound 45] had a pIC50 of 7.48.
`CNCCN(C)Cc1c[nH]nc1C1CCC(COCC2CC2)(COCC2CC2)CC1` [compound 41, N1-((3-(4,4-bis((cyclopropylmethoxy)methyl)cyclohexyl)-1H-pyrazol-4-yl)methyl)-N1,N2-dimethylethane-1,2-diamine]: the negative logarithm of the IC50 (pIC50) was 8.36.
As to `CN(C)CCN(C)Cc1c[nH]nc1[C@H]1CC[C@]2(CC1)CC(C)(C)CO2` [compound 43, N1-((3-((5r,8r)-3,3-dimethyl-1-oxaspiro[4.5]decan-8-yl)-1H-pyrazol-4-yl)methyl)-N1,N2,N2-trimethylethane-1,2-diamine], the pIC50 is 7.24.
With `CCC1(CC)C[C@]2(CC[C@@H](c3n[nH]cc3CN(C)CCNC)CC2)NC1=O` [compound 48, (5r,8r)-3,3-diethyl-8-(4-((methyl(2-(methylamino)ethyl)amino)methyl)-1H-pyrazol-3-yl)-1-azaspiro[4.5]decan-2-one] the figure was 7.45; with `CNCCN(C)Cc1c[nH]nc1C1CCC(CO)(CO)CC1` [compound 44, (4-(4-((methyl(2-(methylamino)ethyl)amino)methyl)-1H-pyrazol-3-yl)cyclohexane-1,1-diyl)dimethanol], 7.67.
For `CN(C)CCN(C)Cc1c[nH]nc1[C@H]1CC[C@@]2(CC1)CC(C)(C)CO2` [compound 42, N1-((3-((5S,8S)-3,3-dimethyl-1-oxaspiro[4.5]decan-8-yl)-1H-pyrazol-4-yl)methyl)-N1,N2,N2-trimethylethane-1,2-diamine] the value was 7.50.
In the case of `CCOCCOCC1(COCCOCC)CCC(c2n[nH]cc2CN(C)CCNC)CC1` [compound 39, N1-((3-(4,4-bis((2-ethoxyethoxy)methyl)cyclohexyl)-1H-pyrazol-4-yl)methyl)-N1,N2-dimethylethane-1,2-diamine], the negative logarithm of the IC50 (pIC50) was 7.51.
For `CCC1(CC)C[C@]2(CC[C@H](c3n[nH]cc3CN(C)CCNC)CC2)NC1=O` [compound 47, (5s,8s)-3,3-diethyl-8-(4-((methyl(2-(methylamino)ethyl)amino)methyl)-1H-pyrazol-3-yl)-1-azaspiro[4.5]decan-2-one] the value was 7.82.
`CNCCN(C)Cc1c[nH]nc1C1=CCC2(CC1)CC(C)(C)CO2` (stereo not drawn) [compound 46, N1-((3-(3,3-dimethyl-1-oxaspiro[4.5]dec-7-en-8-yl)-1H-pyrazol-4-yl)methyl)-N1,N2-dimethylethane-1,2-diamine] had a pIC50 of 7.70.
Turning to `CC[C@H]1CC[C@@H](c2n[nH]cc2CN(C)CCNC)CC1` [compound 1], the pIC50 is 8.32.
`CNCCN(C)Cc1ccnn1[C@H]1CC[C@@]2(CC1)CC(C)(C)CO2` [compound 49, N1-((1-((5s,8s)-3,3-dimethyl-1-oxaspiro[4.5]decan-8-yl)-1H-pyrazol-5-yl)methyl)-N1,N2-dimethylethane-1,2-diamine]: the pIC50 is 7.71.
For `CNCCN(C)Cc1c[nH]nc1C1CCC(COCCC2CCOCC2)(COCCC2CCOCC2)CC1` [compound 40] the value was 7.68.

A word on the pIC50: it is −log10 of the IC50, conventionally taken in molar units. Low values mean a high IC50, high ones a low IC50.
